Experimental data: patent US20220401514A1, “ANTIMICROBIAL, BACTERIOPHAGE-DERIVED POLYPEPTIDES AND THEIR USE AGAINST GRAM-NEGATIVE AND ACID-FAST BACTERIA” (CONTRAFECT CORPORATION, priority 2019, published 2022)
Like-named read-outs stand apart in the source and are kept apart here.

Legend:
[1] = system: Mycobacterium tuberculosis strains
Protocol: MIC values for various Chp peptides were determined using the CLSI method for broth microdilution in 96-well microtiter format.
Next, MIC values for various Chp peptides were determined using the CLSI method above for broth microdilution in 96-well microtiter format for two different Mycobacterium tuberculosis strains. The MIC was determined as explained above for the NTM strains.

[2] = system: carbapenem-resistant bacterial strains; test: organism not typed; assay type: cell-based
Text: Determination of Minimal Inhibitory Concentrations (MIC).

[3] = system: M. scrofulaceum; test: 45 hr MIC against M. scrofulaceum (NTM); assay type: cell-based, Mycobacterium scrofulaceum; conditions: M. scrofulaceum Prissick and Masson ATCC 19981
[4] = system: M. smegmatis; test: 45 hr MIC against M. smegmatis (NTM), Mueller Hinton broth; assay type: cell-based, Mycobacterium smegmatis
[5] = system: carbapenem-resistant P. aeruginosa clinical isolate CFS-1292; test: MIC by modified CLSI broth microdilution against P. aeruginosa CFS-1292 (CAA, CAA + human serum); assay type: cell-based, Pseudomonas aeruginosa
[6] = system: P. aeruginosa strain CFS-1292; test: Checkerboard assay (FICI) with antibiotics, P. aeruginosa; assay type: cell-based, Pseudomonas aeruginosa; parameters: key to FIC Index: FICI = FIC A + FIC B; each FIC = MIC in combination / MIC alone; conditions: for FICI: CAA + […] human serum; for Chp peptide MIC in checkerboard: P. aeruginosa CFS-1292, CAA + […] human serum
Method in brief: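 Antibiotic diluted 2-fold along one plate axis against Chp peptide; bacteria added at 1×10^5 […] in CAA, optionally with human serum or pulmonary surfactant.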

[7] = system: P. aeruginosa strain CFS-1292; test: MIC in presence of mouse, rat, rabbit and human serum ([…] each); assay type: cell-based, Pseudomonas aeruginosa; conditions: P. aeruginosa CFS-1292
Protocol: The activity of several Chp peptides against P. aeruginosa strain CFS-1292 in animal serum was evaluated. […] Rat, mouse, and rabbit serum were all obtained from pooled gender samples.

[8] = system: M. intracellulare; test: 45 hr MIC against M. intracellulare (NTM); assay type: cell-based, Mycobacterium intracellulare; conditions: M. intracellulare (Cuttino and McCabe) Runyon ATCC 13950
[9] = system: Klebsiella pneumoniae; test: microbe, parasite or virus in culture; assay type: cell-based; conditions: CAA without human serum
[10] = system: M. avium; test: 45 hr MIC against M. avium (NTM); assay type: cell-based, Mycobacterium avium; conditions: M. avium Chester ATCC 700898
[11] = system: P. aeruginosa strain CFS-1292; test: MIC in presence and absence of Survanta pulmonary surfactant; assay type: cell-based, Pseudomonas aeruginosa
[12] = system: P. aeruginosa strain CFS-1292; test: MIC in presence of divalent cations (calcium chloride, magnesium sulfate); assay type: cell-based, Pseudomonas aeruginosa
Protocol: Next, Chp peptides were evaluated in the presence of different divalent cations. […]; (2) in the presence of 2 mM calcium chloride alone; (3) in the presence of 1 mM magnesium sulfate alone; and (4) in the presence of both 2 mM calcium chloride and 1 mM magnesium sulfate. […]

[13] = system: Acinetobacter baumannii; test: microbe, parasite or virus in culture; assay type: cell-based
[14] = system: P. aeruginosa strain CFS-1292; test: MIC in presence and absence of NaCl (140 mM); assay type: cell-based, Pseudomonas aeruginosa
Protocol: Certain Chp peptides were evaluated over a range of physiological NaCl levels and pH values, and were further evaluated for activity in the presence of various divalent cations.

[15] = system: M. fortuitum; test: 45 hr MIC against M. fortuitum (NTM); assay type: cell-based, Mycobacterium fortuitum; conditions: M. fortuitum subsp. Fortuitum da Costa Cruz. ATCC 6841
[16] = A. baumannii isolates (n per peptide in table)

MRLKMARRRYRLPRRRSRRLFSRTALRMHPRNRLRRIMRGGIRF [Chp2]
MIC ([1]; Mycobacterium tuberculosis (Zopf) Lehmann and Neumann ATCC 25177): 16 µg/mL | MIC ([1]; Mycobacterium tuberculosis (Zopf) Lehmann and Neumann ATCC 35817): 16 µg/mL | MIC ([2]; carbapenem-resistant isolate PA19): 0.5 µg/mL | MIC ([2]; carbapenem-resistant isolate PA20): 1 µg/mL | MIC ([2]; carbapenem-resistant isolate PA21): 1 µg/mL | MIC ([2]; carbapenem-resistant isolate PA22): 1 µg/mL | MIC ([2]; carbapenem-resistant isolate PA23): 1 µg/mL | MIC ([2]; carbapenem-resistant isolate PA24): 1 µg/mL | MIC ([2]; carbapenem-resistant isolate WLC-452): 0.5 µg/mL | 45 hr MIC [3]: 0.5 µg/mL | 45 hr MIC ([4]; M. smegmatis MC^2 155, Run #1): 4 µg/mL | 45 hr MIC ([4]; M. smegmatis MC^2 155, Run #2): 4 µg/mL | MIC (μg/mL) against CFS-1292 in 100% CAA (1st run/2nd run) ([5]; 100% CAA, 1st run or single value): 0.5 µg/mL | MIC (μg/mL) against CFS-1292 in CAA + […] human serum ([5]; CAA + […] human serum): 0.5 µg/mL | FIC Index ([6]; Chp peptide combined with Amikacin, P. aeruginosa CFS-1292): 0.5 | FIC Index ([6]; Chp peptide combined with Azithromycin, P. aeruginosa CFS-1292): 0.375 | FIC Index ([6]; Chp peptide combined with Aztreonam, P. aeruginosa CFS-1292): 0.375 | FIC Index ([6]; Chp peptide combined with Ciprofloxacin, P. aeruginosa CFS-1292): 0.75 | FIC Index ([6]; Chp peptide combined with Colistin, P. aeruginosa CFS-1292): 0.375 | FIC Index ([6]; Chp peptide combined with Gentamicin, P. aeruginosa CFS-1292): 0.5625 | FIC Index ([6]; Chp peptide combined with Imipenem, P. aeruginosa CFS-1292): 0.375 | FIC Index ([6]; Chp peptide combined with Levofloxacin, P. aeruginosa CFS-1292): 0.5 | FIC Index ([6]; Chp peptide combined with Meropenem, P. aeruginosa CFS-1292): 0.375 | FIC Index ([6]; Chp peptide combined with Piperacillin, P. aeruginosa CFS-1292): 1 | FIC Index ([6]; Chp peptide combined with Tobramycin, P. aeruginosa CFS-1292): 0.375 | interaction between the Chp peptide and the antibiotic (FICI values) ([6]; P. aeruginosa CFS-1292, range of antibiotics): either synergy (i.e., ≤0.5) or strongly additive (i.e., >0.5-1) | FICI ([6]; combination with Amikacin): 0.500 | FICI ([6]; combination with Azithromycin): 0.156 | FICI ([6]; combination with Aztreonam): 0.500 | FICI ([6]; combination with Ciprofloxacin): 0.500 | FICI ([6]; combination with Colistin): 0.375 | FICI ([6]; combination with Fosfomycin): 0.250 | FICI ([6]; combination with Gentamicin): 0.281 | FICI ([6]; combination with Imipenem): 0.188 | FICI ([6]; combination with Piperacillin): 0.188 | FICI ([6]; combination with Rifampicin): 0.563 | FICI ([6]; combination with Tobramycin): 0.266 | Chp peptide FIC ([6]; combined with Amikacin, P. aeruginosa CFS-1292): 0.25 | Chp peptide MIC in checkerboard ([6]; combined with Amikacin): 0.25 µg/mL | Chp peptide FIC ([6]; combined with Azithromycin, P. aeruginosa CFS-1292): 0.125 | Chp peptide MIC in checkerboard ([6]; combined with Azithromycin): 0.0625 µg/mL | Chp peptide FIC ([6]; combined with Aztreonam, P. aeruginosa CFS-1292): 0.125 | Chp peptide MIC in checkerboard ([6]; combined with Aztreonam): 0.0625 µg/mL | Chp peptide FIC ([6]; combined with Ciprofloxacin, P. aeruginosa CFS-1292): 0.25 | Chp peptide MIC in checkerboard ([6]; combined with Ciprofloxacin): 0.125 µg/mL | Chp peptide FIC ([6]; combined with Colistin, P. aeruginosa CFS-1292): 0.125 | Chp peptide MIC in checkerboard ([6]; combined with Colistin): 0.0625 µg/mL | Chp peptide FIC ([6]; combined with Gentamicin, P. aeruginosa CFS-1292): 0.0625 | Chp peptide MIC in checkerboard ([6]; combined with Gentamicin): 0.03125 µg/mL | Chp peptide FIC ([6]; combined with Imipenem, P. aeruginosa CFS-1292): 0.25 | Chp peptide MIC in checkerboard ([6]; combined with Imipenem): 0.125 µg/mL | Chp peptide FIC ([6]; combined with Levofloxacin, P. aeruginosa CFS-1292): 0.25 | Chp peptide MIC in checkerboard ([6]; combined with Levofloxacin): 0.0625 µg/mL | Chp peptide FIC ([6]; combined with Meropenem, P. aeruginosa CFS-1292): 0.125 | Chp peptide MIC in checkerboard ([6]; combined with Meropenem): 0.0625 µg/mL | Chp peptide FIC ([6]; combined with Piperacillin, P. aeruginosa CFS-1292): 0.5 | Chp peptide MIC in checkerboard ([6]; combined with Piperacillin): 0.25 µg/mL | Chp peptide FIC ([6]; combined with Tobramycin, P. aeruginosa CFS-1292): 0.125 | Chp peptide MIC in checkerboard ([6]; combined with Tobramycin): 0.0625 µg/mL | MIC BALB/C Mouse Serum ([7]; BALB/C mouse serum […]): 32 µg/mL | MIC CAA ([7]; CAA): 0.5 µg/mL | MIC New Zealand White Rabbit Serum ([7]; New Zealand White rabbit serum […]): 2 µg/mL | MIC Sprague Dawley Rat Serum ([7]; Sprague Dawley rat serum […]): 2 µg/mL | MIC Human Serum ([7]; human serum […]): 0.5 µg/mL | 45 hr MIC [8]: 0.5 µg/mL | MIC ([9]; Klebsiella pneumoniae (ATCC 10031, MIC control strain), RSC 814): 4 µg/mL | MIC ([9]; Klebsiella pneumoniae (g2-3 HM35K), RSC 1138): 4 µg/mL | MIC ([9]; Klebsiella sp. (HM-44; colon, Crohn's disease), RSC 1139): 2 µg/mL | MIC ([9]; Klebsiella spp. (HM-223; gut of Crohn's disease patient), RSC 1131): 4 µg/mL | 45 hr MIC [10]: 1 µg/mL | MIC ([11]; CAA media + 0.19 mg/mL Survanta): 1 µg/mL | MIC ([11]; CAA media + […] Survanta): 1 µg/mL | MIC ([11]; CAA media alone): 0.5 µg/mL | MIC ([12]; CAA media + 1 mM MgSO4): 0.5 µg/mL | MIC ([12]; CAA media + 2 mM CaCl2): 0.25 µg/mL | MIC ([12]; CAA media + + 1 mM MgSO4): 0.25 µg/mL | MIC ([12]; CAA media alone): 0.5 µg/mL | MIC50 [13, 16]: 0.5 µg/mL | MIC100 [13, 16]: 0.5 µg/mL | MIC Range [13, 16]: 0.25 to 1 µg/mL | MIC ([13]; Acinetobacter baumannii (clinical isolate HSS), RSC 30, CAA without human serum): 2 µg/mL | MIC ([13]; Acinetobacter baumannii (clinical isolate HSS), RSC 32, CAA without human serum): 2 µg/mL | MIC ([13]; Acinetobacter baumannii ATCC BAA 747, CAA supplemented with human serum): 0.125 µg/mL | Fold change in MIC ([14]; CAA + 140 mM NaCl versus CAA without added NaCl): 1 | MIC, CAA + 140 mM NaCl ([14]; CAA + 140 mM NaCl, P. aeruginosa CFS-1292): 0.5 µg/mL | MIC, CAA (no added NaCl) ([14]; CAA, no added NaCl, P. aeruginosa CFS-1292): 0.5 µg/mL | 45 hr MIC [15]: 2 µg/mL
